Measured values reported in US10772917B2, “Pancreatic endocrine progenitor cell therapies for the treatment of obesity and type 2 diabetes (T2D)” (THE UNIVERSITY OF BRITISH COLUMBIA, priority 2015, dated 2020).

Columns and labels:
[1] = under the conditions tested; cited from earlier work
HFD-fed mice [2] = experiment: Body weight, epididymal fat pad weight and leptin in 60% fat diet mice given antidiabetic drug with or without cell transplant (Example 6); format: in vivo, mouse (SCID-beige); conditions: for circulating leptin levels: 60% fat diet, drug combined with cell transplant vs respective sham controls on the same drug, 20 weeks post-transplant
From the text: Male SCID-beige mice (C.B-Igh-1b/GbmsTac-Prkdcscid-LystbgN7, 8-10 weeks old; Taconic™) were maintained on a 12 hr light/dark cycle throughout the study. All experiments were approved by the UBC Animal Care Committee and carried out in accordance with the Canadian Council on Animal Care guidelines.
(§1) In the second cohort, mice were placed on either the 10% fat control diet (D12450K; n=8) for the duration of the study of 60% fat diet (D12492; n=64) for 6 weeks, followed by one of the following treatment regimens for the remainder of the study (n=16 per group): (1) 60% fat diet with no drug (D12492), (2) 60% fat diet containing rosiglitazone (18 mg/kg diet or ˜3 mg/kg BW per day; Cayman Chemical™; Research Diets™ custom diet formulation D08121002), (3) 60% fat diet containing sitagliptin (4 g/kg diet or ˜750 mg/kg BW per day; sitagliptin phosphate monohydrate, BioVision™; Research Diets™ custom diet formulation D08062502R), or (4) 60% fat diet (D12492) and metformin (1,1-dimethylbiguanide hydrochloride) in drinking water (1.25 mg/ml or ˜250 mg/kg BW per day).
The procedure used for transplantation of macro-encapsulated pancreatic progenitor cells was as follows. Similar transplantation of macro-encapsulated pancreatic endocrine precursor cells or insulin-producing cells was described in Rezania et al. 2014, Pagliucca et al. 2014 and Agulnick A. D. et al. 2015. All mice were anaesthetized with inhalable isoflurane and transplant recipients received ˜5×10^6 hESC-derived pancreatic progenitor cells subcutaneously (s.c.) within a 20 1 TheraCyte™ macroencapsulation device (TheraCyte Inc.™, Laguna Hills, Calif.) on the right flank, as previously described (Bruin et al., 2013). Sham mice received the same surgical procedure, but no macroencapsulation device was implanted. In the first cohort, mice were randomly assigned to receive either a cell transplant (Tx, n=7 per diet) or sham surgery (sham, n=4 per diet) after 7 weeks of LFD or HFD feeding. […]
All metabolic analyses were performed in conscious, restrained mice and blood samples were collected via the saphenous vein. BW and blood glucose levels were assessed regularly throughout each study following a 4-hr morning fast. […]
Glucose tolerance tests (GTTs) were performed following a 6-hour morning fast and administration of glucose by oral gavage or intraperitoneal (i.p.) injection (2 glucose/kg BW, 30% solution; Vétoquinol™, Lavaltrie, QC). Glucose-stimulated human C-peptide secretion from engrafted cells was assessed following an overnight fast and an i.p. injection of glucose (2 g/kg). […] Blood glucose levels were measured using a handheld glucometer (Lifescan™; Burnaby, Canada). […]

HFD-fed mice [3] = experiment: Fasting blood glucose and oral glucose tolerance test in 60% fat diet mice given antidiabetic drug with or without cell transplant (Example 6); format: in vivo, mouse (SCID-beige); conditions: for glucose tolerance (oral glucose tolerance test): HFD-fed mice, cell therapy combined with the drug
Protocol: as §1
(§2) The procedure used for transplantation of macro-encapsulated pancreatic progenitor cells was as follows. Similar transplantation of macro-encapsulated pancreatic endocrine precursor cells or insulin-producing cells was described in Rezania et al. 2014, Pagliucca et al. 2014 and Agulnick A. D. et al. 2015. All mice were anaesthetized with inhalable isoflurane and transplant recipients received ˜5×10^6 hESC-derived pancreatic progenitor cells subcutaneously (s.c.) within a 20 1 TheraCyte™ macroencapsulation device (TheraCyte Inc.™, Laguna Hills, Calif.) on the right flank, as previously described (Bruin et al., 2013). Sham mice received the same surgical procedure, but no macroencapsulation device was implanted. In the first cohort, mice were randomly assigned to receive either a cell transplant (Tx, n=7 per diet) or sham surgery (sham, n=4 per diet) after 7 weeks of LFD or HFD feeding. In the second cohort, HFD-fed mice (+/−drug treatment) received either a transplant (n=8 per group) or sham surgery (n=8 per group) 1 week after administration of the antidiabetic drugs. LFD controls all received sham surgery.
All metabolic analyses were performed in conscious, restrained mice and blood samples were collected via the saphenous vein. BW and blood glucose levels were assessed regularly throughout each study following a 4-hr morning fast. For all other metabolic tests, blood was collected after fasting (time 0) and at the indicated time points following administration of various secretagogues.
(§3) Glucose tolerance tests (GTTs) were performed following a 6-hour morning fast and administration of glucose by oral gavage or intraperitoneal (i.p.) injection (2 glucose/kg BW, 30% solution; Vétoquinol™, Lavaltrie, QC). Glucose-stimulated human C-peptide secretion from engrafted cells was assessed following an overnight fast and an i.p. injection of glucose (2 g/kg). […] Blood glucose levels were measured using a handheld glucometer (Lifescan™; Burnaby, Canada). Mouse hormone and lipid profiles were assessed in plasma using the following kits: leptin (Mouse Leptin ELISA, Crystal ChemInc.™, Downers Grove, Ill.), insulin (Ultrasensitive Mouse Insulin ELISA, Alpco Diagnostics™, Salem, N.H.), C-peptide (Mouse C-peptide ELISA, Alpco Diagnostics™), triglycerides (Serum Triglyceride kit, Sigma-Aldrich™), free fatty acids (NEFA-HR(2) kit, Wako Chemical™, Richmond, Va.) and cholesterol (Cholesterol E™ kit, Wako Chemical™). Hormone secretion from engrafted hESC-derived cells was assessed by measuring plasma human C-peptide (C-peptide ELISA, 80-CPTHU-E01.1; Alpco Diagnostics™) and human insulin and glucagon levels (K15160C-2; Meso Scale Discovery™, Gaithersburg, Md.). […]

HFD-fed mice [4] = experiment: Mouse and human C-peptide after intraperitoneal glucose challenge (Example 6); format: in vivo, mouse (SCID-beige); conditions: drug plus cell transplant vs respective sham controls; for reduction of fasting mouse C-peptide levels: 4 weeks post-transplant; for fasting mouse C-peptide levels: 16 weeks post-transplant
From the text: as §2
as §3, with “g/kg). Insulin tolerance tests (ITTs) were performed following a 4-hour morning fast and administration of human synthetic insulin (0.7 IU/kg body weight; Novolin Ge™ Toronto, Novo Nordisk™, Mississaugua, Canada).” for “g/kg).”, “Md.). Hemoglobin A1c (HbA1c) levels were measured with a Siemens DCA 200 Vantage Analyzer™ (Siemens Healthcare Diagnostics™, Tarrytown, N.Y.) from whole blood collected from the saphenous vein with EDTA as an anticoagulant.” for “Md.).”

pancreatic regeneration = conditions: ductal ligation model; cited from earlier work
[5] = 12 weeks post-transplant, drug with the cell therapy

Molecule	short term effect [1]	circulating leptin levels (HFD-fed mice [2])	glucose tolerance (oral glucose tolerance test) (HFD-fed mice [3]; 12 weeks post-transplant)	reduction of fasting mouse C-peptide levels (HFD-fed mice [4])	fasting mouse C-peptide levels (HFD-fed mice [4])	further results
exendin-4: anti-diabetic medicine examined earlier for short term effect (Bruin et al. 2013)	without significant effect	–	–	–	–	–
CN(CCOc1ccc(CC2SC(=O)NC2=O)cc1)c1ccccn1 (stereo not shown) [rosiglitazone]	–	no effect	–	–	–	–
N[C@@H](CC(=O)N1CCn2c(nnc2C(F)(F)F)C1)Cc1cc(F)c(F)cc1F [sitagliptin, sitagliptin phosphate monohydrate]	–	significantly reduced	significantly improved	not yet evident	significantly reduced	weight loss (HFD-fed mice [2]; cells transplanted in combination with the drug, compared with other groups): the most weight loss was observed; glycemic control during an oral glucose challenge compared with LFD controls (HFD-fed mice [3]; [5]): indistinguishable; peak glucose level at 15 minutes post-gavage compared with LFD controls (HFD-fed mice [3]; [5]): marginally higher; glucose tolerance (HFD-fed mice [3]; drug on its own, without cell transplant): mild reduction in glucose tolerance
insulin: anti-diabetic medicine examined earlier for short term effect (Bruin et al. 2013)	without significant effect	–	–	–	–	–
C=CC[C@@H]1/C=C(\C)C[C@H](C)C[C@H](OC)[C@H]2O[C@@](O)(C(=O)C(=O)N3CCCC[C@H]3C(=O)O[C@H](/C(C)=C/[C@@H]3CC[C@@H](O)[C@H](OC)C3)[C@H](C)[C@@H](O)CC1=O)[C@H](C)C[C@@H]2OC [tacrolimus]	–	–	–	–	–	pancreatic regeneration (pancreatic regeneration): block pancreatic regeneration
CN(C)C(=N)NC(=N)N.Cl [metformin, 1,1-dimethylbiguanide hydrochloride]	–	significantly reduced	significantly improved	not yet evident	significantly reduced	–
